Test results from patent publication US4015974A, “Amido phosphorothiolates” (priority 1972, dated 1977).

Tests used:
Assay type in all cases: in vivo
[1] = system: barnyard grass (Echinochloa crus-galli); assay: Pre-emergence application, herbicidal effect on barnyard grass (Table 1); parameters: key: 0: not damaged; 5: completely killed; conditions: 20 days after application, score 0-5
Excerpt: (§1) Seeds of barnyard grass (Echinochloa crus-galli) and large crabgrass (Digitaria sanguinalis) as representatives of grassy weeds and those of radish, redroot pigweed (Amaranthus retroflexus), common purslane (Portulaca oleracea) and common lambsquarter (Chenopodium album) as representatives of broad-leaved weeds were individually sowed in flower pots of about 10 cm. in diameter. After covering the seeds with soil, test compounds as shown in Table 1 were individually applied to the soil treatment. Thereafter the plants were grown in a green house and 20 days after application the herbicidal effects of the compounds were observed, the results of which are as shown in Table 1.
(§2) Herbicidal effects were evaluated by the numerals ranging from 0 (not damaged) to 5 (completely killed). All the test compounds were used in the form of wettable powder and diluted with water before application.

[2] = system: large crabgrass (Digitaria sanguinalis); assay: Pre-emergence application, herbicidal effect on large crabgrass (Table 1); parameters: key: 0: not damaged; 5: completely killed; conditions: 20 days after application, score 0-5
Excerpt: as §1, §2

radish = assay: Pre-emergence application, herbicidal effect on radish (Table 1); parameters: key: 0: not damaged; 5: completely killed; conditions: 20 days after application, score 0-5
Excerpt: as §1, §2

[3] = system: redroot pigweed (Amaranthus retroflexus); assay: Pre-emergence application, herbicidal effect on redroot pigweed (Table 1); parameters: key: 0: not damaged; 5: completely killed; conditions: 20 days after application, score 0-5
Excerpt: as §1, §2

[4] = system: common purslane (Portulaca oleracea); assay: Pre-emergence application, herbicidal effect on common purslane (Table 1); parameters: key: 0: not damaged; 5: completely killed; conditions: 20 days after application, score 0-5
Excerpt: as §1, §2

[5] = system: common lambsquarter (Chenopodium album); assay: Pre-emergence application, herbicidal effect on common lambsquarter (Table 1); parameters: key: 0: not damaged; 5: completely killed; conditions: 20 days after application, score 0-5
Excerpt: as §1, §2

rice = assay: Water application, phytotoxicity on rice (Table 2); parameters: key: 0: no effect; 1: very slightly affected; 2: slightly affected; 3: moderately affected; 4: considerably affected; 5: completely killed; conditions: 25 days, score 0-5
Excerpt: (§3) Wagner pots of 14 cm. in diameter, which had been packed with 1.5 kg. of paddy field soil, were brought into the state of paddy fields. To the pots were transplanted rice seedlings at the 3-leave stage. Further, seeds of barnyard grass (Echinochloa crus-galli) were sowed in the pots and required amounts of test compounds were applied to the soil under water lodged condition. 25 days after application, the degrees of herbicidal activity and phytotoxity were investigated on above-mentioned plants which had been transplanted and sowed, and on broad-leaved weeds, e.g., monochoria (Monochoria viaginalis Presl.), false pimpernel (Linderna pyxidaria) and toothcup (Rotala indica Koehue), which had been spontaneously germinated. The test compounds were used in the form of wettable powder. The herbicidal effects and the phytotoxity were evaluated as follows by the numerals ranging from 0 to 5.

[6] = system: barnyard grass (Echinochloa crus-galli); assay: Water application, herbicidal effect on barnyard grass (Table 2); parameters: key: 0: not damaged; 5: completely killed; conditions: 25 days, score 0-5
Excerpt: as §3

[7] = system: broad-leaved weeds, e.g., monochoria, false pimpernel and toothcup; assay: Water application, herbicidal effect on broad-leaved weeds (Table 2); parameters: key: 0: not damaged; 5: completely killed; conditions: 25 days, score 0-5
Excerpt: as §3

CCCOP(=O)(SCC)SCC(=O)N1CCCCC1CC (stereo not drawn) [Compound 84]
Herbicidal effect, barnyard grass ([1]; 10 g./a.): 5
Herbicidal effect, barnyard grass ([1]; 20 g./a.): 5
Herbicidal effect, barnyard grass ([1]; 40 g./a.): 5
Herbicidal effect, large crabgrass ([2]; 10 g./a.): 5
Herbicidal effect, large crabgrass ([2]; 20 g./a.): 5
Herbicidal effect, large crabgrass ([2]; 40 g./a.): 5
Herbicidal effect, radish (radish; 10 g./a.): 0
Herbicidal effect, radish (radish; 20 g./a.): 1
Herbicidal effect, radish (radish; 40 g./a.): 2
Herbicidal effect, redroot pigweed ([3]; 10 g./a.): 4
Herbicidal effect, redroot pigweed ([3]; 20 g./a.): 5
Herbicidal effect, redroot pigweed ([3]; 40 g./a.): 5
Herbicidal effect, common purslane ([4]; 10 g./a.): 5
Herbicidal effect, common purslane ([4]; 20 g./a.): 5
Herbicidal effect, common purslane ([4]; 40 g./a.): 5
Herbicidal effect, common lambsquarter ([5]; 10 g./a.): 4
Herbicidal effect, common lambsquarter ([5]; 20 g./a.): 5
Herbicidal effect, common lambsquarter ([5]; 40 g./a.): 5
Phytotoxicity on rice (rice; 10 g/a): 0
Phytotoxicity on rice (rice; 20 g/a): 0
Phytotoxicity on rice (rice; 40 g/a): 2
Herbicidal effects, barnyard grass ([6]; 10 g/a): 5
Herbicidal effects, barnyard grass ([6]; 20 g/a): 5
Herbicidal effects, barnyard grass ([6]; 40 g/a): 5
Herbicidal effects, broad-leaved weeds ([7]; 10 g/a): 5
Herbicidal effects, broad-leaved weeds ([7]; 20 g/a): 5
Herbicidal effects, broad-leaved weeds ([7]; 40 g/a): 5

CCOP(=O)(SCCC(C)C)SCC(=O)N1CCCCC1CC (stereo not drawn) [Compound 79]
Herbicidal effect, barnyard grass ([1]; 10 g./a.): 5
Herbicidal effect, barnyard grass ([1]; 20 g./a.): 5
Herbicidal effect, barnyard grass ([1]; 40 g./a.): 5
Herbicidal effect, large crabgrass ([2]; 10 g./a.): 5
Herbicidal effect, large crabgrass ([2]; 20 g./a.): 5
Herbicidal effect, large crabgrass ([2]; 40 g./a.): 5
Herbicidal effect, radish (radish; 10 g./a.): 0
Herbicidal effect, radish (radish; 20 g./a.): 0
Herbicidal effect, radish (radish; 40 g./a.): 1
Herbicidal effect, redroot pigweed ([3]; 10 g./a.): 4
Herbicidal effect, redroot pigweed ([3]; 20 g./a.): 5
Herbicidal effect, redroot pigweed ([3]; 40 g./a.): 5
Herbicidal effect, common purslane ([4]; 10 g./a.): 5
Herbicidal effect, common purslane ([4]; 20 g./a.): 5
Herbicidal effect, common purslane ([4]; 40 g./a.): 5
Herbicidal effect, common lambsquarter ([5]; 10 g./a.): 5
Herbicidal effect, common lambsquarter ([5]; 20 g./a.): 5
Herbicidal effect, common lambsquarter ([5]; 40 g./a.): 5
Phytotoxicity on rice (rice; 10 g/a): 0
Phytotoxicity on rice (rice; 20 g/a): 0
Phytotoxicity on rice (rice; 40 g/a): 1
Herbicidal effects, barnyard grass ([6]; 10 g/a): 5
Herbicidal effects, barnyard grass ([6]; 20 g/a): 5
Herbicidal effects, barnyard grass ([6]; 40 g/a): 5
Herbicidal effects, broad-leaved weeds ([7]; 10 g/a): 5
Herbicidal effects, broad-leaved weeds ([7]; 20 g/a): 5
Herbicidal effects, broad-leaved weeds ([7]; 40 g/a): 5

CCCCOP(=O)(SCC(=O)N1CCCCC1CC)SC(C)CC (stereo not drawn) [Compound 96]
Herbicidal effect, barnyard grass ([1]; 10 g./a.): 4
Herbicidal effect, barnyard grass ([1]; 20 g./a.): 5
Herbicidal effect, barnyard grass ([1]; 40 g./a.): 5
Herbicidal effect, large crabgrass ([2]; 10 g./a.): 5
Herbicidal effect, large crabgrass ([2]; 20 g./a.): 5
Herbicidal effect, large crabgrass ([2]; 40 g./a.): 5
Herbicidal effect, radish (radish; 10 g./a.): 0
Herbicidal effect, radish (radish; 20 g./a.): 0
Herbicidal effect, radish (radish; 40 g./a.): 0
Herbicidal effect, redroot pigweed ([3]; 10 g./a.): 3
Herbicidal effect, redroot pigweed ([3]; 20 g./a.): 4
Herbicidal effect, redroot pigweed ([3]; 40 g./a.): 5
Herbicidal effect, common purslane ([4]; 10 g./a.): 3
Herbicidal effect, common purslane ([4]; 20 g./a.): 4
Herbicidal effect, common purslane ([4]; 40 g./a.): 5
Herbicidal effect, common lambsquarter ([5]; 10 g./a.): 3
Herbicidal effect, common lambsquarter ([5]; 20 g./a.): 4
Herbicidal effect, common lambsquarter ([5]; 40 g./a.): 5
Phytotoxicity on rice (rice; 10 g/a): 0
Phytotoxicity on rice (rice; 20 g/a): 0
Phytotoxicity on rice (rice; 40 g/a): 0
Herbicidal effects, barnyard grass ([6]; 10 g/a): 5
Herbicidal effects, barnyard grass ([6]; 20 g/a): 5
Herbicidal effects, barnyard grass ([6]; 40 g/a): 5
Herbicidal effects, broad-leaved weeds ([7]; 10 g/a): 5
Herbicidal effects, broad-leaved weeds ([7]; 20 g/a): 5
Herbicidal effects, broad-leaved weeds ([7]; 40 g/a): 5

CCCCCSP(=O)(OCCC)SCC(=O)N1CCCCC1C (stereo not drawn) [Compound 68]
Herbicidal effect, barnyard grass ([1]; 10 g./a.): 4
Herbicidal effect, barnyard grass ([1]; 20 g./a.): 4
Herbicidal effect, barnyard grass ([1]; 40 g./a.): 5
Herbicidal effect, large crabgrass ([2]; 10 g./a.): 4
Herbicidal effect, large crabgrass ([2]; 20 g./a.): 4
Herbicidal effect, large crabgrass ([2]; 40 g./a.): 5
Herbicidal effect, radish (radish; 10 g./a.): 0
Herbicidal effect, radish (radish; 20 g./a.): 0
Herbicidal effect, radish (radish; 40 g./a.): 0
Herbicidal effect, redroot pigweed ([3]; 10 g./a.): 4
Herbicidal effect, redroot pigweed ([3]; 20 g./a.): 4
Herbicidal effect, redroot pigweed ([3]; 40 g./a.): 5
Herbicidal effect, common purslane ([4]; 10 g./a.): 3
Herbicidal effect, common purslane ([4]; 20 g./a.): 4
Herbicidal effect, common purslane ([4]; 40 g./a.): 5
Herbicidal effect, common lambsquarter ([5]; 10 g./a.): 4
Herbicidal effect, common lambsquarter ([5]; 20 g./a.): 4
Herbicidal effect, common lambsquarter ([5]; 40 g./a.): 5
Phytotoxicity on rice (rice; 10 g/a): 0
Phytotoxicity on rice (rice; 20 g/a): 0
Phytotoxicity on rice (rice; 40 g/a): 0
Herbicidal effects, barnyard grass ([6]; 10 g/a): 5
Herbicidal effects, barnyard grass ([6]; 20 g/a): 5
Herbicidal effects, barnyard grass ([6]; 40 g/a): 5
Herbicidal effects, broad-leaved weeds ([7]; 10 g/a): 5
Herbicidal effects, broad-leaved weeds ([7]; 20 g/a): 5
Herbicidal effects, broad-leaved weeds ([7]; 40 g/a): 5

CCCCCCSP(=O)(OCC)SCC(=O)N1CCCCC1C (stereo not drawn) [Compound 62]
Herbicidal effect, barnyard grass ([1]; 10 g./a.): 4
Herbicidal effect, barnyard grass ([1]; 20 g./a.): 5
Herbicidal effect, barnyard grass ([1]; 40 g./a.): 5
Herbicidal effect, large crabgrass ([2]; 10 g./a.): 4
Herbicidal effect, large crabgrass ([2]; 20 g./a.): 5
Herbicidal effect, large crabgrass ([2]; 40 g./a.): 5
Herbicidal effect, radish (radish; 10 g./a.): 0
Herbicidal effect, radish (radish; 20 g./a.): 0
Herbicidal effect, radish (radish; 40 g./a.): 0
Herbicidal effect, redroot pigweed ([3]; 10 g./a.): 3
Herbicidal effect, redroot pigweed ([3]; 20 g./a.): 4
Herbicidal effect, redroot pigweed ([3]; 40 g./a.): 5
Herbicidal effect, common purslane ([4]; 10 g./a.): 3
Herbicidal effect, common purslane ([4]; 20 g./a.): 4
Herbicidal effect, common purslane ([4]; 40 g./a.): 5
Herbicidal effect, common lambsquarter ([5]; 10 g./a.): 4
Herbicidal effect, common lambsquarter ([5]; 20 g./a.): 4
Herbicidal effect, common lambsquarter ([5]; 40 g./a.): 5
Phytotoxicity on rice (rice; 10 g/a): 0
Phytotoxicity on rice (rice; 20 g/a): 0
Phytotoxicity on rice (rice; 40 g/a): 0
Herbicidal effects, barnyard grass ([6]; 10 g/a): 5
Herbicidal effects, barnyard grass ([6]; 20 g/a): 5
Herbicidal effects, barnyard grass ([6]; 40 g/a): 5
Herbicidal effects, broad-leaved weeds ([7]; 10 g/a): 5
Herbicidal effects, broad-leaved weeds ([7]; 20 g/a): 5
Herbicidal effects, broad-leaved weeds ([7]; 40 g/a): 5

C=CCSP(=O)(OCCC)SCC(=O)N1CCCCC1C (stereo not drawn) [Compound 70]
Herbicidal effect, barnyard grass ([1]; 10 g./a.): 5
Herbicidal effect, barnyard grass ([1]; 20 g./a.): 5
Herbicidal effect, barnyard grass ([1]; 40 g./a.): 5
Herbicidal effect, large crabgrass ([2]; 10 g./a.): 5
Herbicidal effect, large crabgrass ([2]; 20 g./a.): 5
Herbicidal effect, large crabgrass ([2]; 40 g./a.): 5
Herbicidal effect, radish (radish; 10 g./a.): 0
Herbicidal effect, radish (radish; 20 g./a.): 0
Herbicidal effect, radish (radish; 40 g./a.): 0
Herbicidal effect, redroot pigweed ([3]; 10 g./a.): 5
Herbicidal effect, redroot pigweed ([3]; 20 g./a.): 5
Herbicidal effect, redroot pigweed ([3]; 40 g./a.): 5
Herbicidal effect, common purslane ([4]; 10 g./a.): 5
Herbicidal effect, common purslane ([4]; 20 g./a.): 5
Herbicidal effect, common purslane ([4]; 40 g./a.): 5
Herbicidal effect, common lambsquarter ([5]; 10 g./a.): 5
Herbicidal effect, common lambsquarter ([5]; 20 g./a.): 5
Herbicidal effect, common lambsquarter ([5]; 40 g./a.): 5
Phytotoxicity on rice (rice; 10 g/a): 0
Phytotoxicity on rice (rice; 20 g/a): 0
Phytotoxicity on rice (rice; 40 g/a): 2
Herbicidal effects, barnyard grass ([6]; 10 g/a): 5
Herbicidal effects, barnyard grass ([6]; 20 g/a): 5
Herbicidal effects, barnyard grass ([6]; 40 g/a): 5
Herbicidal effects, broad-leaved weeds ([7]; 10 g/a): 5
Herbicidal effects, broad-leaved weeds ([7]; 20 g/a): 5
Herbicidal effects, broad-leaved weeds ([7]; 40 g/a): 5

O=[N+]([O-])c1ccc(Oc2ccc(Cl)cc2Cl)cc1 [NIP, reference compound]
Phytotoxicity on rice (rice; 20 g/a): 2
Phytotoxicity on rice (rice; 40 g/a): 4
Herbicidal effects, barnyard grass ([6]; 20 g/a): 5
Herbicidal effects, barnyard grass ([6]; 40 g/a): 5
Herbicidal effects, broad-leaved weeds ([7]; 20 g/a): 5
Herbicidal effects, broad-leaved weeds ([7]; 40 g/a): 5
